Results reported in patent US20210246109A1, “POTENT AND SELECTIVE INHIBITORS OF CYTOCHROME P450” (University of Kentucky Research Foundation, priority 2020, published 2021).
Where “and” joins values, the source holds several entries; their conditions need not be identical. Identical values can stand only once. Like-named read-outs stand apart in the source and are kept apart here.

Key:
CYP1B1 = target: T1, CYP1B1 (Homo sapiens, UniProt Q16678); assay: EROD assay in inducible CYP1B1 cell line; type: cell-based
T1 construct: expressed in transfected cells
T1 sequence (Q16678 1-543): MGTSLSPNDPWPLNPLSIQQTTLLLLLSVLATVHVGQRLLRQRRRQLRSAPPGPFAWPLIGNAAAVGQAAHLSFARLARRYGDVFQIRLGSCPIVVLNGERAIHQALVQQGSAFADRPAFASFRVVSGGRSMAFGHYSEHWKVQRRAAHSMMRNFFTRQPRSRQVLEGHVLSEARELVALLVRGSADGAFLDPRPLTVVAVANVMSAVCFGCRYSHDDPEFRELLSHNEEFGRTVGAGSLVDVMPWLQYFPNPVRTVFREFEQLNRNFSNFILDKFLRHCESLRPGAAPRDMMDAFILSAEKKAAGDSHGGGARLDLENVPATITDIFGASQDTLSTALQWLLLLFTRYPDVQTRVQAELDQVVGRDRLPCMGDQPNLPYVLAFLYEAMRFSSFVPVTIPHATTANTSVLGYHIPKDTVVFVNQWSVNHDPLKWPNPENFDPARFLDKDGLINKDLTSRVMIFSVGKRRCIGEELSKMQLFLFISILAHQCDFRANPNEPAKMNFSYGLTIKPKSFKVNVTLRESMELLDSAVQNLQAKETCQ
Description: (§1) The activity of the inhibitors was assessed in a novel cell based assay generated for the purpose of this project. Enzymatic turnover of CYP1B1 was measured using the ethoxy-resorufin-O-deethylase (EROD) assay with the fluorescent substrate, resorufin ethyl ether. Cell lines were generated where the gene for CYP1B1 alone or CYP1B1 and cytochrome P450 reductase (CPR) were both under the control of an inducible promoter. A cell line was generated for counter screening where the gene for CYP1A1 was used. CYP1A1 is the closest family member to CYP1B1.

CYP1A1 = target: T2, CYP1A1 (Homo sapiens, UniProt P04798); assay: EROD assay in CYP1A1 counter-screen cell line; type: cell-based; conditions: for SI 1B1:1A1: selectivity index
T2 construct: expressed in transfected cells
T2 sequence (P04798 1-512): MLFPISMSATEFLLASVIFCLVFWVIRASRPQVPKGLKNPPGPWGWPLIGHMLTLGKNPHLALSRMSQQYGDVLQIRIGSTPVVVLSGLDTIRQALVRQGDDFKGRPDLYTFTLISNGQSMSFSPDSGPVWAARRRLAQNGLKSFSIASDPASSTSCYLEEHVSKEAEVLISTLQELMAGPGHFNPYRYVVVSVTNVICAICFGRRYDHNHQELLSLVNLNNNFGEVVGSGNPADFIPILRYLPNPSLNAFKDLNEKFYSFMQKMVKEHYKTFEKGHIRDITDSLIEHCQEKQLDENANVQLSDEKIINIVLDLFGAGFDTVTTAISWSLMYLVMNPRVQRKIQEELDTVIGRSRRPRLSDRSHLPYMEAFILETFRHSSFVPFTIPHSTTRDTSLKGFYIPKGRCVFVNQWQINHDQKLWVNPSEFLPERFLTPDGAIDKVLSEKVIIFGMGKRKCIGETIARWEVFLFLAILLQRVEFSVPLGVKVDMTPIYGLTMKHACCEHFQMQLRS
Description: as §1

[1] = target: T3, pooled human liver microsomes (pHLMs) (Homo sapiens, UniProt P05177); assay: EROD counterscreen in pooled human liver microsomes; type: biochemical; conditions: human, microsomes, Table 3; read-out: IC50 pHLM
T3 sequence (P05177 2-516): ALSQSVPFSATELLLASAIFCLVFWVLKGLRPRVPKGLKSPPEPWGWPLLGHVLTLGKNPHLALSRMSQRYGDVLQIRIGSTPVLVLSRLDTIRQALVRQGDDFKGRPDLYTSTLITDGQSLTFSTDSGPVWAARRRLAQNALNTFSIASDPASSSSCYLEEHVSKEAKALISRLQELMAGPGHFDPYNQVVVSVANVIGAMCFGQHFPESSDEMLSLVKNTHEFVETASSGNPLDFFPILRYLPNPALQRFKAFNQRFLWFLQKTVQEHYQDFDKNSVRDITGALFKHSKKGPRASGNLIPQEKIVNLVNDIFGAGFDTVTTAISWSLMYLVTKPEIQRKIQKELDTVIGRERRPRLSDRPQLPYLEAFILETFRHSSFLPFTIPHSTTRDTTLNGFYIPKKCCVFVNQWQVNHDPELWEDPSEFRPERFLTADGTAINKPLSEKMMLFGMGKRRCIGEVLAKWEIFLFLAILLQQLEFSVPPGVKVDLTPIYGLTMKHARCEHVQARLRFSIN
From the text: Human liver microsomes were used as a counterscreen to experimentally determine the magnitude of inhibitor selectivity.

[2] = Table 2, EROD assay, read-out: IC50 CYP1B1
[3] = Table 2, EROD assay, read-out: IC50 CYP1A1

SMILES	IC50 (CYP1A1; Table 3, read-out: IC50 1A1)	IC50 (CYP1B1; Table 3, read-out: IC50 1B1)	further results
COc1ccc(-c2nc(-c3ccc(O)cc3)cs2)c(OC)c1 [GL673]	–	–	IC50 (CYP1B1; [2]): 101 nM
COc1cc(-c2nc3ccc(I)cc3c(=O)[nH]2)ccc1OCC#N [GL551]	560 nM	< 0.25 nM	IC50 [1]: > 3 µM
N#CCOc1ccc(/C=N/c2ccccc2C(N)=O)cc1 [GL542]	> 10000 nM	51 nM	–
CC(C)(C)OC(=O)NCCCOc1nc(-c2ccc(OCC#N)cc2)nc2ccccc12 [GL571]	1280 nM	< 2.5 nM	IC50 [1]: > 10 µM
N#CCOc1nc(-c2ccc(OCCCN=[N+]=[N-])cc2)nc2ccccc12 [GL628]	–	126 nM	–
N#CCOc1ccc(-c2nc(OCCCCCCBr)c3ccccc3n2)cc1 [GL564]	1940 nM	< 2.5 nM	IC50 [1]: > 10 µM
C#CCOc1ccc(-c2nc(-c3ccc(C#N)cc3)cs2)cc1 [GL664]	–	–	IC50 (CYP1A1; [3]): 696 nM; SI 1B1:1A1 (CYP1A1): 3.44; IC50 (CYP1B1; [2]): 202 nM
Oc1nc(-c2ccc(F)cc2)nc2ccccc12 [GL-717]	3900 nM	1900 nM	–
COc1cc(-c2nc3ccc(C#Cc4ccccc4)cc3c(=O)[nH]2)ccc1OCC#N [GL552]	> 10000 nM	1.8 nM	–
N#CCOc1nc(-c2ccc(F)cc2)nc2ccccc12 [GL-718]	15 nM	850 nM	–
c1ccc2nc(-c3nc4ccccc4[nH]3)ccc2c1 [GL-707]	760 nM	44 nM	–
COc1cc(C(=O)/C=C/c2ccc3ccccc3n2)cc(OC)c1OC [GL-713]	3000 nM	550 nM	–
COc1cc(-c2nc(OCC#N)c3ccccc3n2)ccc1OCC#N [GL557]	1720 nM	< 0.7 nM	–
COc1ccc(-c2nc3ccccc3c(=O)[nH]2)cc1 [GL553]	4760 nM	3.8 nM	–
N#CCOc1ccc(-c2nc3ccccc3c(=O)[nH]2)cc1OCC#N [GL546]	3500 nM	20.4 nM	–
N#CCOc1ccc(-c2nc(OCC#N)c3ccccc3n2)cc1 [GL- 561]	3600 nM	–	–
N#CCOc1ccc(-c2nc(OCCCCCCN=[N+]=[N-])c3ccccc3n2)cc1 [GL565]	1870 nM	< 2.5 nM	IC50 [1]: > 10 µM
COc1ccc(/C=C/C(=O)c2cc(OC)c(OC)c(OC)c2)c(OC)c1 [GL-714]	5200 nM	1100 nM	–
N#CCOc1ccc(-c2nc3ccccc3c(=O)[nH]2)c(OCC#N)c1 [GL545]	4400 nM	–	–
O=c1[nH]c(-c2ccc(Cl)cc2)nc2ccccc12 [GL642]	85 nM	22 nM	–
COc1ccc(/C=C/c2ccncc2)c(OC)c1 [Compound 6]	–	–	activity as CYP1B1 inhibitor, in words (CYP1B1): potent
[N-]=[N+]=NCCCOc1ccc(-c2nc3ccccc3c(=O)[nH]2)cc1 [GL627]	–	6.1 nM	–
O=c1[nH]c(-c2ccc3ccccc3n2)nc2ccccc12 [GL651]	1100 nM	2.8 nM	–
Cn1c(-c2ccc3ccccc3n2)nc2ccccc2c1=O [GL659]	> 10000 nM	> 1000 nM	–

SMILES	IC50 (CYP1A1; Table 3, read-out: IC50 1A1)	IC50 (CYP1B1; Table 3, read-out: IC50 1B1)	further results
N#Cc1ccc(-c2csc(-c3ccc(O)cc3)n2)cc1 [GL649]	–	–	IC50 (CYP1A1; [3]): 16400 nM; SI 1B1:1A1 (CYP1A1): 17.6; IC50 (CYP1B1; [2]): 931 nM
Fc1ccc(-c2nc3ccccc3[nH]2)cc1C(F)(F)F [GL-706]	320 nM	85 nM	–
N#CCOc1nc(-c2cccc(C(F)(F)F)c2)nc2ccccc12 [GL-729]	50 nM	–	–
COc1ccc(/C=C/c2cc[n+](C)cn2)c(OC)c1 [Compound 7]	–	–	activity as CYP1B1 inhibitor, in words (CYP1B1): poor activity
COc1ccc(-c2nc(OC)c3ccccc3n2)cc1 [GL556]	2590 nM	6.7 nM	–
N#Cc1ccc(-c2csc(-c3cccnc3)n2)cc1 [GL656]	–	–	IC50 (CYP1B1; [2]): 391 nM
COc1nc(-c2ccc(OCC#N)cc2)nc2ccccc12 [GL558]	2460 nM	< 0.7 nM	–
Fc1ccc(-c2nc3ccccc3[nH]2)cc1 [GL-719]	5200 nM	3000 nM	–
COc1ccc(-c2nc(OCC#N)c3ccccc3n2)cc1 [GL554]	3330 nM	3.5 nM	–
O=c1[nH]c(-c2cccc(C(F)(F)F)c2)nc2ccccc12 [GL-728]	–	200 nM	–
COc1cc(OCC#N)ccc1-c1nc2ccccc2c(=O)[nH]1 [GL521]	1230 nM and 1180 nM	0.51 nM and 1.3 nM	IC50 [1]: > 10 µM
N#CCOc1ccc(/C=C/c2ccncn2)cc1 [Compound 13]	–	–	activity as CYP1B1 inhibitor, in words (CYP1B1): potent
N#CCOc1nc(-c2ccc(Cl)cc2)nc2ccccc12 [GL643]	125 nM	0.1 nM	–
N#CCOc1ccc(/C=C/c2ccc(COC#N)cc2COC#N)cc1 [GL652]	1860 nM	19 nM	–
N#CCOc1ccc(-c2nc(-c3cccnc3)cs2)cc1 [GL641]	–	–	IC50 (CYP1A1; [3]): 2610 nM; SI 1B1:1A1 (CYP1A1): 6833; IC50 (CYP1B1; [2]): 0.381 nM
Oc1ccc(-c2nc(-c3ccc(F)c(C(F)(F)F)c3)cs2)cc1 [GL678]	–	–	IC50 (CYP1A1; [3]): 14700 nM; SI 1B1:1A1 (CYP1A1): 70.5; IC50 (CYP1B1; [2]): 208 nM
N#CCOc1nc(-c2ccc(F)c(C(F)(F)F)c2)nc2ccccc12 [GL-701]	250 nM	–	–
COc1ccc(/C=C/c2ccccc2)c(OC)c1 [Compound 1]	–	–	activity as CYP1B1 inhibitor, in words (CYP1B1): poor activity
O=c1[nH]c(-c2ccccn2)nc2ccccc12 [GL518]	–	2440 nM	–
N#CCOc1ccc(-c2nc(OCCCN)c3ccccc3n2)cc1 [GL572]	2120 nM	< 2.5 nM	IC50 [1]: > 10 µM
O=C(NCCCOc1ccc(CCc2ccncn2)cc1)OCCOCCOCCOC(=O)NC12CC3CC(CC(C3)C1)C2 [GL594]	1100 nM	9400 nM	–
Fc1ccc(-c2csc(-c3ccccn3)n2)cc1C(F)(F)F [GL666]	–	–	IC50 (CYP1A1; [3]): 240 nM; SI 1B1:1A1 (CYP1A1): 2.86; IC50 (CYP1B1; [2]): 83.8 nM
O=c1[nH]c(-c2ccc(F)c(C(F)(F)F)c2)nc2ccccc12 [GL-700]	2300 nM	41 nM	–
